Measured values published in BigSolDB 2.1.

COc1ccc2cccc(CCNC(C)=O)c2c1
solubility (mole fraction)
Settings | in ethanol | in ethyl acetate | in isopropanol | in methanol | in n-butanol | in n-butyl acetate | in n-pentyl acetate | in n-propanol | in n-propyl acetate | in water
278.15 K | 0.0109 | 0.00662 | 0.00499 | 0.0192 | 0.00986 | 0.00323 | 0.00181 | 0.00905 | 0.00406 | 1.8e-05
283.15 K | 0.0169 | 0.00934 | 0.0107 | 0.0264 | 0.0147 | 0.00474 | 0.00281 | 0.016 | 0.00625 | 2.9e-05
288.15 K | 0.0235 | 0.0131 | 0.0186 | 0.0347 | 0.0214 | 0.00661 | 0.00432 | 0.0201 | 0.00886 | 4.59e-05
293.15 K | 0.0319 | 0.0175 | 0.0256 | 0.0442 | 0.0279 | 0.00944 | 0.00601 | 0.0261 | 0.0127 | 6.85e-05
298.15 K | 0.0425 | 0.0263 | 0.032 | 0.0584 | 0.04 | 0.0134 | 0.00884 | 0.0402 | 0.018 | 0.000119
303.15 K | 0.0542 | 0.0342 | 0.039 | 0.0752 | 0.05 | 0.0207 | 0.0156 | 0.0484 | 0.0255 | 0.000161
308.15 K | 0.0819 | 0.0454 | 0.053 | 0.101 | 0.06 | 0.0261 | 0.021 | 0.0694 | 0.0364 | 0.000248
313.15 K | 0.109 | 0.0598 | 0.0686 | 0.147 | 0.0802 | 0.038 | 0.0294 | 0.0892 | 0.0466 | 0.00038
318.15 K | 0.144 | 0.0754 | 0.0893 | 0.18 | 0.107 | 0.0507 | 0.0397 | 0.115 | 0.0639 | 0.000551
